The record followed here is US4791215A, “Derivatives of glutamic acid and aspartic acid” (priority 1984, dated 1988).

Assay [1] concerns activity of analgesic drugs. The assay is described as follows: Hot-plate test, potentiation of analgesic drugs (Experiment 2). Type of assay: in vivo, rats. As to conditions: acetyl salicylic acid 100 mg/kg i.p. alone. As for the experimental part: Experiment No. 2: Hot-plate test
The method is that described by Eddy et al. (J. Pharmac. Exp. Ther. 107, 385 (1953)).
Groups of five male rats having a weight of about 150 g, and which have not fasted, are used.
The animals are placed on a metal plate on the bottom of a transparent cylinder, which is heated to 55°±1° C. by an azeotropic boiling mixture (acetone-ethyl formate 1:1).
The reaction time is defined as the interval which passes between the moment at which the animal is placed on the hot-plate and the moment at which it either licks its feet or tries to jump out of the cylinder. The control reaction time is measured 10 and 5 minutes before administration of the drugs and 10, 20, 30, 45, 60 and 90 minutes afterwards. The animals are left on the plate for a maximum period of 30 seconds.
The response to the administration of the product is considered positive if at least a doubling of the normal reaction time is seen. The results obtained are given in Tables 2a and 2b which record the groups treated, the doses administered and the stay times on the plate expressed as the number of positive responses over the number treated.
On the technique in general: Thermal pain tests record how soon the animal reacts.

For assay [2], the system named is morphine analgesia. The assay is described as follows: Increase in analgesia of morphine, Tail Flick Test (Experiment 1). As to conditions: for percentage variation of latency of pain sensation / M (10-90) ± SE, mean percentage variation of latency: compound 10 mg/kg i.p. + morphine 2 mg/kg; for M (10-90) ± SE, mean percentage variation of latency: mean 10-90 min; for Power ratio with respect to morphine alone: rat, in vivo. Type of assay: in vivo, rats. As for the experimental part:
Experiment No: 1 Increase in analgesia of analgesic-narcotic drugs in rats by the Tail Flick Test
The method is that described by Harris et al. (J. Pharmacol. Exp. Ther. 143 (1964) 141-148).
Male rats are used having a weight of about 150-200 g which have not fasted. A point on the tail is chosen and irradiated by a heat source (75° C.) and the time (in seconds) for which the animal remains without moving its tail is measured.
A maximum period of time of 8 seconds under the heat source is chosen, after which the animal is, in any case, removed to avoid tissue damage. The measurement is effected before (controls) and after treatment with the drugs.
The percentage variation is calculated for each individual animal by the following formula: [formula] The measurements were carried out 10, 20, 30, 45, 60 and 90 minutes after treatment with the analgesics.

For `CC(=O)Oc1ccccc1C(=O)O` [Acetyl Salicylic Acid, reference compound], the TOTAL positives in assay [1] was determined as 8 x/30. The “positive responses over number treated” value in assay [1] (10') is recorded as 1/5; in assay [1] (20'), 2/5; in assay [1] (30'), 2/5; in assay [1] (45') it was 2/5; in assay [1] (60'), 0/5; in assay [1] (90'), 1/5.
`CCCN(CCC)C(=O)C(CCC(=O)O)NC(=O)c1ccc(CC(C)C)cc1` (stereo not drawn) [Compound C-38]: the “percentage variation of latency of pain sensation” value in assay [2] (10') is on record as 53.8%; in assay [2] (20') it was 85.7 ± 10%; in assay [2] (30') it was 92.0 ± 8%; in assay [2] (45') it was 99.1 ± 1%; in assay [2] (60') it was 91.2 ± 9%; in assay [2] (90') it was 51.1 ± 14%. The “M (10-90) ± SE, mean percentage variation of latency” value in assay [2] came to 78.8%. Also, the “Power ratio with respect to morphine alone” value (“Power ratio” for short) in assay [2] is 2.64.
On to `CCN(CC)C(=O)C(CCC(=O)O)NC(=O)c1ccc(C)c(C)c1` (stereo not drawn) [Compound C-40], for which the “percentage variation of latency of pain sensation” value was found to be 43.8 ± 15% in assay [2] (10'); 69.1% in assay [2] (20'); 49.0 ± 23% in assay [2] (30'); 85.6 ± 6% in assay [2] (45'); 76.5 ± 17% in assay [2] (60'); 61.5 ± 14% in assay [2] (90'). Moreover, the “M (10-90) ± SE, mean percentage variation of latency” value in assay [2] is 64.2 ± 16%. In addition, the “Power ratio” value in assay [2] is 2.15.
Turning to `CCCCNC(=O)C(CCC(=O)O)NC(=O)c1ccc(CC)cc1` (stereo not drawn) [Compound C-43], the “percentage variation of latency of pain sensation” value in assay [2] (10') was 54.1 ± 17%; in assay [2] (20'), 44.4 ± 23%; in assay [2] (30'), 38.9 ± 26%; in assay [2] (45'), 36.8 ± 27%; in assay [2] (60'), 47.8 ± 23%; in assay [2] (90'), 22.5 ± 13%. Further, the “M (10-90) ± SE, mean percentage variation of latency” value in assay [2] came out at 40.7 ± 11%. In assay [2], the “Power ratio” value is on record as 1.36.
As for `CCCCNC(=O)C(CCC(=O)O)NC(=O)c1ccc(CCC)cc1` (stereo not drawn) [Compound C-44], the “percentage variation of latency of pain sensation” value is reported as -1.6 ± 11% in assay [2] (10'); 17.0 ± 6% in assay [2] (20'); 24.9% in assay [2] (30'); 26.9 ± 19% in assay [2] (45'); 35.1 ± 17% in assay [2] (60'); 39.8 ± 8% in assay [2] (90'). For the same compound, in assay [2], the “M (10-90) ± SE, mean percentage variation of latency” value is listed as 23.7 ± 15%. For the same compound, in assay [2], the “Power ratio” value is listed as 0.79.
Regarding `CCCNC(=O)C(CCC(=O)O)NC(=O)c1ccc(C)c(C)c1` (stereo not drawn) [Compound C-45], the “percentage variation of latency of pain sensation” value was determined as 57.2 ± 18% in assay [2] (10'); 99.7 ± 0.3% in assay [2] (20'); 95.7 ± 4% in assay [2] (30'); 93.1 ± 7% in assay [2] (45'); 77.7 ± 11% in assay [2] (60'); 80.4% in assay [2] (90'). For the same compound, in assay [2], the “M (10-90) ± SE, mean percentage variation of latency” value stood at 84.0 ± 16%. Moreover, the “Power ratio” value in assay [2] is on record as 2.82.
Consider `CC(C)c1ccc(C(=O)NC(CCC(=O)O)C(=O)NC2CCCCC2)cc1` (stereo not drawn) [Compound C-49], for which the “percentage variation of latency of pain sensation” value amounted to 62.1 ± 9% in assay [2] (10'); 100.0 ± 0% in assay [2] (20'); 97.6 ± 2% in assay [2] (30'); 99.5 ± 0.5% in assay [2] (45'); 99.2 ± 0.5% in assay [2] (60'); 65.8 ± 0.8% in assay [2] (90'). In addition, the “M (10-90) ± SE, mean percentage variation of latency” value in assay [2] is reported as 87.4%. The “Power ratio” value in assay [2] is on record as 2.93.
`Cc1ccc(C(=O)NC(CCC(=O)O)C(=O)N(C)C)cc1C` (stereo not drawn) [Compound C-50]: the “percentage variation of latency of pain sensation” value in assay [2] (10') is 22.3 ± 13%; in assay [2] (20'), 68.9 ± 9%; in assay [2] (30') it was 60.2 ± 19%; in assay [2] (45'), 49.4 ± 14%; in assay [2] (60') it was 73.5 ± 15%; in assay [2] (90'), 24.7 ± 6%. Also, in assay [2], the “M (10-90) ± SE, mean percentage variation of latency” value stood at 49.8 ± 22%. Further, the “Power ratio” value in assay [2] is 1.67.
For the compound `Cc1ccc(C(=O)NC(CCC(=O)O)C(=O)N2CCOCC2)cc1C` (stereo not drawn) [Compound C-51], the “percentage variation of latency of pain sensation” value in assay [2] (10') stood at 78.7 ± 18%; in assay [2] (20'), 82.8%; in assay [2] (30'), 90.5 ± 10%; in assay [2] (45') it was 86.4 ± 14%; in assay [2] (60'), 65.6 ± 13%; in assay [2] (90'), 48.5 ± 10%. The “M (10-90) ± SE, mean percentage variation of latency” value in assay [2] is reported as 75.4 ± 16%. In addition, the “Power ratio” value in assay [2] is on record as 2.53.
Regarding `Cc1ccc(C(=O)NC(CCC(=O)O)C(=O)N2CCCCC2)cc1C` (stereo not drawn) [Compound C-52], the “percentage variation of latency of pain sensation” value in assay [2] (10') was 72.8 ± 15%; in assay [2] (20'), 95.8 ± 3%; in assay [2] (30') it was 96.3 ± 4%; in assay [2] (45'), 85.5 ± 10%; in assay [2] (60'), 87.6%; in assay [2] (90'), 45.3 ± 6%. Further, the “M (10-90) ± SE, mean percentage variation of latency” value in assay [2] is 80.6 ± 19%. Also, the “Power ratio” value in assay [2] was 2.70.
As for `CCCCN(CCCC)C(=O)C(CCC(=O)O)NC(=O)c1cccc(C)c1` (stereo not drawn) [Compound C-53], the “percentage variation of latency of pain sensation” value in assay [2] (10') is recorded as 31.2 ± 15%; in assay [2] (20'), 46.7 ± 28%; in assay [2] (30'), 70.2 ± 23%; in assay [2] (45'), 76.9 ± 22%; in assay [2] (60'), 45.6 ± 27%; in assay [2] (90'), 12.6 ± 25%. For the same compound, the “M (10-90) ± SE, mean percentage variation of latency” value in assay [2] is on record as 47.2 ± 24%. The “Power ratio” value in assay [2] is listed as 1.58.
As for `CCCCNC(=O)CCC(NC(=O)c1ccc(CC)cc1)C(=O)O` [Compound D-13], the “percentage variation of latency of pain sensation” value in assay [2] (10') turned out to be 7.1 ± 8%; in assay [2] (20'), 32%; in assay [2] (30') it was 62.5 ± 23%; in assay [2] (45'), 31.8 ± 21%; in assay [2] (60'), 48.5 ± 22%; in assay [2] (90') it was 50.9 ± 14%. In addition, the “M (10-90) ± SE, mean percentage variation of latency” value in assay [2] was found to be 38.8 ± 20%. In addition, the “Power ratio” value in assay [2] is on record as 1.30.
For `CCCCNC(=O)CCC(NC(=O)c1ccc(CCC)cc1)C(=O)O` [Compound D-14], the “percentage variation of latency of pain sensation” value is 69.2 ± 14% in assay [2] (10'); 93.4 ± 7% in assay [2] (20'); 46.8 ± 15% in assay [2] (30'); 71.3 ± 17% in assay [2] (45'); 89.1 ± 9% in assay [2] (60'); 60.3% in assay [2] (90'). Also, in assay [2], the “M (10-90) ± SE, mean percentage variation of latency” value was determined as 71.1 ± 14%. Moreover, the “Power ratio” value in assay [2] is 2.41.
`CCCNC(=O)CCC(NC(=O)c1ccc(C)c(C)c1)C(=O)O` [Compound D-16]: the “percentage variation of latency of pain sensation” value in assay [2] (10') amounted to 29.7 ± 21%; in assay [2] (20') it was 42.8 ± 18%; in assay [2] (30'), 40.1 ± 22%; in assay [2] (45'), 35.4 ± 18%; in assay [2] (60') it was 33.3 ± 20%; in assay [2] (90'), 23.3%. Also, in assay [2], the “M (10-90) ± SE, mean percentage variation of latency” value turned out to be 34.1 ± 17%. In addition, the “Power ratio” value in assay [2] turned out to be 1.14.
